From patent publication US6063797A, “γ-RAR antagonist ligand or α-RAR agonist ligand as an apoptosis inhibitor” (priority 1995, dated 2000)
Where two headings read alike, the source gives them in different places.

Experiments:
RAR-α = target: T1, RAR-α (Homo sapiens, UniProt P10276); experiment: Dissociation constant for RAR-α receptors; type: binding
T1 sequence (P10276 1-462): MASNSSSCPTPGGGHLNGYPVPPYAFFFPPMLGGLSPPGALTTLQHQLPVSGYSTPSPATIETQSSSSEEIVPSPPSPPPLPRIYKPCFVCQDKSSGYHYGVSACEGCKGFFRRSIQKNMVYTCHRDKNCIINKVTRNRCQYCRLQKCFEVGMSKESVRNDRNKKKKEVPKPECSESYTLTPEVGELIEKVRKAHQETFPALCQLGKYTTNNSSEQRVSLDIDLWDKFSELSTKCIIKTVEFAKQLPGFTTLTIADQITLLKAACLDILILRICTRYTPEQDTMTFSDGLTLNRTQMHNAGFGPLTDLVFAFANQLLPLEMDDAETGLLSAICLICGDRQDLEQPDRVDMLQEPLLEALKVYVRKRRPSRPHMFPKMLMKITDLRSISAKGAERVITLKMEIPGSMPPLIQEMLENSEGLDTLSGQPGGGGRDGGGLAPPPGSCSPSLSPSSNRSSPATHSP

thymocytes [1] = experiment: Quantitative DNA fragmentation (apoptosis) in thymocytes, retinoid-induced (Example 1); type: cell-based, mouse (NMRI); conditions: for % of DNA fragments: 6 h
Description: (§1) Thymus glands from untreated 4-week old NMRI male mice (sold by LATI, Godollo, Hungary) are used as the starting material for preparing thymocyte suspensions. The medium employed is Sigma RPMI 1640 medium which is supplemented with Gibco foetal calf serum, 2 mM glutamine, 100 IU of penicillin and 100 μg of streptomycin/ml. The thymocytes are then washed and diluted, in order to obtain a final concentration of 10^7 cells/ml, before incubating them at 37° C. in a humidified incubator under an atmosphere of 5% CO2 and 95% air. The death of the cells is measured by the uptake of trypan blue.
(§2) The thymocytes are incubated in 24 wells together with various compounds to be tested. After 6 hours of incubation, 0.8 ml volumes of cell suspensions were lysed by the addition of 0.7 ml of lysis buffer containing 0.5% (v/v) Triton X-100, 10 mM Tris, 20 mM EDTA, pH 8.0, before being centrifuged at 13,000 g for 15 minutes.
(§3) Quantitative analysis of the DNA: the DNA contained in the supernatant (the fragments) and the pellet (intact chromatin) was precipitated with an equivalent quantity of 10% trichloroacetic acid, resuspended in 5% trichloroacetic acid and then quantified using the diphenylamine reagent (Burton, K. (1956) Biochem. J., 62, 315-322).
Qualitative analysis of the DNA: in parallel, the supernatant was precipitated overnight in ethanol containing […]. The pellets are redissolved in a buffer containing 10 mM Tris, 1 mM EDTA, pH 8.0, after which the solutions are treated with RNase and sequentially extracted with an equal volume of phenol and chloroform/isoamyl alcohol (24/1); the DNA is then precipitated in ethanol before electrophoresis for 3 hours at 60 V in a 1.8% agarose gel. The DNA fragments were then visualized by UV after the gel had been stained with ethidium bromide. The gels obtained display the picture of a ladder of DNA fragments which are multiples of from 180 to 200 base pairs and which are typical for an apoptosis induction. Throughout the experiments, the degree of fragmentation correlates with the number of cells which are dead and which are positive to the trypan blue test.
(§4) The percentage of DNA fragment in this table corresponds to the difference between the percentage of DNA fragment obtained in the treated thymocytes and the percentage of DNA fragment obtained in the untreated thymocytes (basal rate of apoptosis for these thymocytes).

thymocytes [2] = experiment: DNA fragmentation (apoptosis) in thymocytes induced by activating a T-cell receptor with phorbol dibutyrate + Ca++ ionophore (Example 3); type: cell-based, mouse (NMRI); conditions: for % of DNA fragments: difference treated minus untreated
thymocytes [3] = experiment: DNA fragmentation (apoptosis) in thymocytes induced by CD437 (Example 2); type: cell-based, mouse (NMRI); conditions: for % of DNA fragments: difference treated minus untreated
Description: as §1, §2, §3
The procedure is the same as in the preceding example, except that the nature of the ligands to be tested, and their concentration, are altered.
as §4

thymus = type: in vivo, mouse (NMRI); conditions: for Weight of the thymus: 48 h, control 98.2 ± 19.6
Description: 4-week-old male NMRI mice (sold by LATI, Godollo, Hungary) were used. […] For the control, male mice were treated by a single intraperitoneal injection of a mixture of 40 μl of DMSO and 0.5 ml of 20% ethanol. The CD2665 was also tested alone under the same conditions as before and in a quantity of 0.5 mg. The weight of the thymus was determined after 48 hours of treatment, and the results are assembled in Table 4 below.

RAR-γ = target: T2, RAR-γ (Homo sapiens, UniProt P13631); experiment: Dissociation constant for RAR-γ receptors; type: binding
T2 sequence (P13631 1-454): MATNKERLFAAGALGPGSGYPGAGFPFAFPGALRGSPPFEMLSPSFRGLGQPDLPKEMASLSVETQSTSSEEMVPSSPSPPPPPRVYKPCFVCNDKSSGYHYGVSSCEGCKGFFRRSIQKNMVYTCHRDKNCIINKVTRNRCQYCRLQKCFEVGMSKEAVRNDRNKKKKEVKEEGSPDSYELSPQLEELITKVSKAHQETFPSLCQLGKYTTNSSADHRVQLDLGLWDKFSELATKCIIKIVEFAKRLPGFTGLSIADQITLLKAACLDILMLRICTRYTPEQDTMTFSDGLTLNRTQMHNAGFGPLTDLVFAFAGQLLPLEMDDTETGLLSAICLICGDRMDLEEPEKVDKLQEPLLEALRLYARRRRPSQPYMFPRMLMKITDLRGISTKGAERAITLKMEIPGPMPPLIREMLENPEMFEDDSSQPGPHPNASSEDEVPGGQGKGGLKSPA

[4] = 0.5 mg single intraperitoneal injection, alone

Question: How did the “dissociation constant for RAR-α lower than dissociation constant for RAR-γ (fold)” value (RAR-α; RAR-α versus RAR-γ) turn out when `CC1(C)CCC(C)(C)c2cc(C(=O)Nc3ccc(C(=O)O)c(O)c3)ccc21` [2-hydroxy-4-(5,5,8,8-tetramethyl-5,6,7,8-tetrahydronaphthalene-2-carboxamido)benzoic acid] was run?
Answer: at least 20 times

Question: `CC1=C(/C=C/C(C)=C\C=C\C(C)=C\C(=O)O)C(C)(C)CCC1` [9-cisRA, 9-cis-retinoic acid, reference compound] was tested. Which “% of DNA fragments” value (thymocytes [1]; 9-cisRA 1000 nM, difference treated minus untreated thymocytes) did it give?
Answer: 19%

Question: With `CC1=C(/C=C/C(C)=C/C=C/C(C)=C/C(=O)O)C(C)(C)CCC1` [ATRA, all-trans retinoic acid, reference compound] as the molecule, how does the “% of DNA fragments” value (thymocytes [1]; ATRA 5000 nM, difference treated minus untreated thymocytes) read?
Answer: 17%

Question: With `CC1(C)CCC(C)(C)c2cc(C(=O)Nc3ccc(C(=O)O)cc3)ccc21` [CD336, 4-((5,6,7,8-tetrahydro-5,5,8,8-tetramethyl-2-naphthalenyl)carboxamido)benzoic acid] as the molecule, how does the “% of DNA fragments” value (thymocytes [2]; (P + C) + CD336 30 nM) read?
Answer: 9.6%

Question: What about the “% of DNA fragments” value (thymocytes [2]; (P + C) + CD336 300 nM) of the same molecule?
Answer: 8.4%

Question: And the “% of DNA fragments” value (thymocytes [2]; (P + C) + CD336 3000 nM)?
Answer: 1.1%

Question: And the “% of DNA fragments” value (thymocytes [2]; CD336 alone 30 nM)?
Answer: 0%

Question: What about the “% of DNA fragments” value (thymocytes [2]; CD336 alone 300 nM) of the same molecule?
Answer: 0%

Question: And the “% of DNA fragments” value (thymocytes [2]; CD336 alone 3000 nM)?
Answer: 0%

Question: And the “inhibition of apoptosis induced by P+C” value (thymocytes [2]; conclusion from Table 3)?
Answer: inhibited in a dose-dependent manner

Question: What about the “% of DNA fragments” value (thymocytes [3]; CD336 alone 10^-6 M) of the same molecule?
Answer: 0%

Question: And the “% of DNA fragments” value (thymocytes [3]; CD336 alone 10^-7 M)?
Answer: 0%

Question: What about the “% of DNA fragments” value (thymocytes [3]; CD336 alone 10^-8 M) of the same molecule?
Answer: 0%

Question: And the “% of DNA fragments” value (thymocytes [3]; CD437 + CD336 10^-6 M)?
Answer: 0%

Question: What about the “% of DNA fragments” value (thymocytes [3]; CD437 + CD336 10^-7 M) of the same molecule?
Answer: 5%

Question: What about the “% of DNA fragments” value (thymocytes [3]; CD437 + CD336 10^-8 M) of the same molecule?
Answer: 17%

Question: And the “inhibition of apoptosis induced by CD437” value (thymocytes [3]; conclusion from Table 2)?
Answer: inhibited in a dose-dependent manner

Question: For `O=C(O)c1ccc2cc(-c3ccc(O)c(C45CC6CC(CC(C6)C4)C5)c3)ccc2c1` [CD437, reference compound], which “% of DNA fragments” value (thymocytes [1]; CD437 300 nM, difference treated minus untreated thymocytes) is on record?
Answer: 24%

Question: And the “Weight of the thymus” value (thymus; [4])?
Answer: 31.3 ± 13.6 mg

Question: What about the “involution of the thymus” value (thymus; alone, conclusion from Table 4) of the same molecule?
Answer: involution of the thymus is observed

Question: And the “% of DNA fragments” value (thymocytes [3]; CD437 alone 0.3 × 10^-6 M)?
Answer: 17%

Question: Which “% of DNA fragments” value (thymocytes [1]; CD2665 200 nM + 9-cisRA 1000 nM, difference treated minus untreated) does the source give for `COCCOCOc1cc2ccc(-c3ccc(C(=O)O)cc3)cc2cc1C12CC3CC(CC(C3)C1)C2` [CD2665, 4-[7-(1-adamantyl)-6-methoxyethoxymethoxy-2-naphthyl]benzoic acid] here?
Answer: 1.5%

Question: And the “% of DNA fragments” value (thymocytes [1]; CD2665 200 nM + ATRA 5000 nM, difference treated minus untreated)?
Answer: 0%

Question: What about the “% of DNA fragments” value (thymocytes [1]; CD2665 200 nM + CD437 300 nM, difference treated minus untreated) of the same molecule?
Answer: 1.0%

Question: What about the “% of DNA fragments” value (thymocytes [1]; CD2665 200 nM alone, difference treated minus untreated thymocytes) of the same molecule?
Answer: 0.5%

Question: And the “inhibition of apoptosis induced by ATRA, 9-cisRA and CD437” value (thymocytes [1]; conclusion from Table 1)?
Answer: inhibited

Question: What about the “Weight of the thymus” value (thymus; [4]) of the same molecule?
Answer: 107.6 ± 21.7 mg

Question: And the “Weight of the thymus” value (thymus; CD2665 5 mg + CD437 0.5 mg, single intraperitoneal injection)?
Answer: 63.3 ± 9.1 mg

Question: What about the “involution of the thymus” value (thymus; alone, conclusion from Table 4) of the same molecule?
Answer: no significant change is observed

Question: And the “involution of the thymus” value (thymus; combination of CD2665 and CD437, compared with CD437 alone)?
Answer: involution of the thymus which is much less marked than that observed with CD437 alone

Question: What about the Kd (RAR-α) of the same molecule?
Answer: > 2250 nM

Question: What about the Kd (RAR-γ) of the same molecule?
Answer: 110 nM

Question: And the “dissociation constant for RAR-γ lower than dissociation constant for RAR-α (fold)” value (RAR-γ; RAR-γ versus RAR-α)?
Answer: at least 20 times
